Consider 21 compounds from US20070072920A1, “Phenylethylamine analogs and their use for treating glaucoma” (Alcon, Inc., priority 2005, published 2007).

pEC50, pIC50: −log10 of the molar value. Counter-ions that a name gives are not always drawn. Like-named read-outs stand apart in the source and are kept apart here.

The target in assay [1] is T1, 5-HT2 receptor in A7r5 rat vascular smooth muscle cells (Rattus norvegicus, UniProt P14842).
T1 construct: endogenous in cells; host or cells: A7r5 rat vascular smooth muscle cells
T1 sequence (P14842 whole entry): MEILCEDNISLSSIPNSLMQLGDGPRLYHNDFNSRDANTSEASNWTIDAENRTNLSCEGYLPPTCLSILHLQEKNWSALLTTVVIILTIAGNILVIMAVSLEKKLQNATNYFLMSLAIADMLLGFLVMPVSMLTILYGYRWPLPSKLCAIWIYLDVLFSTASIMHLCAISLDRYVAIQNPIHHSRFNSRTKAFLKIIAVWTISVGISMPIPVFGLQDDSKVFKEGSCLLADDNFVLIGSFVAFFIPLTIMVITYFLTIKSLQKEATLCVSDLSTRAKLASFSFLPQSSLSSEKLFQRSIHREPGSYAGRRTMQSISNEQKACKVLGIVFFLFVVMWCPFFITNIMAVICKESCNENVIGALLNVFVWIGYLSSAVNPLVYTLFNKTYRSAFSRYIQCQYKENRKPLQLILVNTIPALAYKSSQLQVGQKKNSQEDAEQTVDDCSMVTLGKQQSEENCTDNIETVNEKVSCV
As to the kind of experiment: 5-HT2 Functional Assay: Calcium Mobilization (FLIPR). The assay is classed as cell-based. The settings on record: for Emax: read-out: Efficacy (Emax %). The method, then: 5-HT2 Functional Assay: Calcium Mobilization
The receptor-mediated mobilization of intracellular calcium ([Ca^2+]i) was studied using the Fluorescence Imaging Plate Reader (FLIPR) instrument. Rat vascular smooth muscle cells, A7r5, were grown in a normal media of DMEM/10% FBS and 10 μg/ml gentamycin. Confluent cell monolayers were trypsinized, pelleted, and re-suspended in normal media. Cells were seeded in a 50 μL volume at a density of 20,000 cells per well in a black wall, 96-well tissue culture plate and grown for 2 days. On the day of the experiment, one vial of FLIPR Calcium Assay Kit dye was re-suspended in 50 ml of a FLIPR buffer consisting of Hank's Balanced Salt Solution (HBSS), 20 mM HEPES, and 2.5 mM probenecid, pH 7.4. Cells were loaded with the calcium-sensitive dye by addition of an equal volume (50 μl) to each well of the 96-well plate and incubated with dye for 1 h at 23° C. Typically, test compounds were stored at […] in 50% DMSO/50% Ethanol solvent. Compounds were diluted 1:50 in 20% DMSO/20% Ethanol. For dose-response experiments, compounds were diluted 1:50 in FLIPR buffer and serially diluted 1:10 to give a 5- or 8-point dose-response curve.
At the beginning of an experimental run, a signal test was performed to check the basal fluorescence signal from the dye-loaded cells and the uniformity of the signal across the plate. The basal fluorescence was adjusted between 8000-12000 counts by modifying the exposure time, the camera F-stop, or the laser power. The instrument settings for a typical assay were as follows: laser power 0.3-0.6 W, camera F-stop F/2, and exposure time 0.4 sec. An aliquot (25 μl) of the test compound was added to the existing 100 μl dye-loaded cells at a dispensing speed of 50 μl/sec. Fluorescence data were collected in real-time at 1.0 sec intervals for the first 60 sec and at 6.0 sec intervals for an additional 120 sec. Responses were measured as peak fluorescence intensity minus basal and where appropriate were expressed as a percentage of a maximum 5-HT-induced response.
In general terms: Calcium assays in cells follow changes in intracellular calcium, usually with a dye or a luminescent sensor.

Assay [2] concerns lasered (hypertensive) eyes of conscious cynomolgus monkeys. As to the kind of experiment: Acute IOP Response in Lasered (Hypertensive) Eyes of Conscious Cynomolgus Monkeys. The assay is classed as in vivo, cynomolgus monkey. The note with it: 300 μg topical; for % IOP change 1 hr: 1 hr after dose; for % IOP change 3 hr: 3 hr after dose; for % IOP change 6 hr: 6 hr after dose. The method, then:
Acute IOP Response in Lasered (Hypertensive) Eyes of Conscious Cynomolgus Monkeys
Intraocular pressure (IOP) can be determined with an Alcon Pneumatonometer after light corneal anesthesia with 0.1% proparacaine. Eyes are washed with saline after each measurement. After a baseline IOP measurement, test compound is instilled in one 30 μL aliquot to the right eyes only of nine cynomolgus monkeys. Vehicle is instilled in the right eyes of six additional animals. Subsequent IOP measurements are taken at 1, 3, and 6 hours.

For the next assay, the target named is 5-HT2 receptors (Rattus norvegicus, UniProt P14842). Nature of the assay: 5-HT2 Receptor Binding Assay ([125I]DOI competition). Further details: species or system rat or human. The settings on record: inhibition of [125I]DOI binding, cerebral cortex homogenates. The protocol:
5-HT2 Receptor Binding Assay
The assay mixture is incubated for 1 hour at 23° C. in polypropylene tubes and the assays terminated by rapid vacuum filtration over Whatman GF/B glass fiber filters previously soaked in 0.3% polyethyleneimine using ice-cold buffer. Test compounds (at different concentrations) are substituted for methiothepin. Filter-bound radioactivity is determined by scintillation spectrometry on a beta counter.

The mark [3] stands for this setting: percentage of maximum 5-HT-induced response, A7r5 cells.

Sequence of 5-HT2 receptors (P14842 whole entry): as above

With `CCOC(=O)Cc1cc(OC)c(C[C@@H](C)N)cc1OC` [Example 1, [(R)-4-(2-Amino-propyl)-2,5-dimethoxy-phenyl]-acetic acid ethyl ester hydrochloride], the pEC50 (commonly the negative decadic logarithm of the EC50, by convention in mol/L) in assay [1] was 5.96. In addition, the Emax (in general, the greatest response seen or fitted, relative to the assay's reference) in assay [1] (setting [3]) came to 24%.

Turning to `COc1cc(C[C@@H](C)N)c(OC)cc1Cc1nc(C)no1` [Example 2, (R)-2-[2,5-Dimethoxy-4-(3-methyl-[1,2,4]oxadiazol-5-ylmethyl)-phenyl]-1-methyl-ethylamine hydrochloride], the pEC50 in assay [1] was 5.97. Besides, the Emax in assay [1] (setting [3]) was determined as 23%.

For `COCCc1cc(OC)c(C[C@@H](C)N)cc1OC.Cl` [Example 3, (R)-2-[2,5-Dimethoxy-4-(2-methoxy-ethyl)-phenyl]-1-methyl-ethylamine hydrochloride], the pEC50 in assay [1] was 7.11. Also, in assay [1] (setting [3]), the Emax turned out to be 53%. Also, in assay [2], the “% IOP change 1 hr” value is −5.2%, the “% IOP change 3 hr” value is given as −16.3% and the “% IOP change 6 hr” value is −21.5%.

On to `COc1cc(CC(C)N)c(OC)cc1CCSC.Cl` (stereo not shown) [Example 4, 2-[2,5-Dimethoxy-4-(2-methylsulfanyl-ethyl)-phenyl]-1-methyl-ethylamine hydrochloride], for which the pEC50 in assay [1] was 7.03. For the same compound, the maximal effect (Emax) in assay [1] (setting [3]) came out at 51%. Further, in assay [2], the “% IOP change 1 hr” value is reported as −3.5%, the “% IOP change 3 hr” value is −14.8% and the “% IOP change 6 hr” value was −16.1%.

In the case of `COc1cc(C[C@@H](C)N)c(OC)cc1CCCSC` [Example 5, (R)-2-[2,5-Dimethoxy-4-(3-methylsulfanyl-propyl)-phenyl]-1-methyl-ethylamine hydrochloride], the pEC50 in assay [1] is 7.43. In addition, the Emax in assay [1] (setting [3]) was determined as 21%.

In the case of `COCCCc1cc(OC)c(C[C@@H](C)N)cc1OC` [Example 6, (R)-2-[2,5-Dimethoxy-4-(3-methoxy-propyl)-phenyl]-1-methyl-ethylamine hydrochloride], in assay [1], the pEC50 was 7.66. Besides, the Emax in assay [1] (setting [3]) came to 45%.

With `COCSCCc1cc(OC)c(C[C@@H](C)N)cc1OC` [Example 7, (R)-2-[2,5-Dimethoxy-4-(2-methoxymethylsulfanyl-ethyl)-phenyl]-1-methyl-ethylamine hydrochloride], in assay [1], the pEC50 is 7.04. The maximum response (Emax) in assay [1] (setting [3]) stood at 32%.

Regarding `COc1cc(C)c(OS(C)(=O)=O)cc1CC(C)N` (stereo not shown) [Example 8, Methanesulfonic acid 5-(2-amino-propyl)-4-methoxy-2-methyl-phenyl ester hydrochloride], the pEC50 in assay [1] was 6.05. The Emax in assay [1] (setting [3]) worked out at 30%.

Regarding `COc1cc(C)c(OC(C)=O)cc1CC(C)N` (stereo not shown) [Example 9, Acetic acid 5-(2-Amino-propyl)-4-methoxy-2-methyl-phenyl ester hydrochloride], the pEC50 in assay [1] is 5.31. The Emax in assay [1] (setting [3]) came out at 37%.

For `COc1cc(C[C@@H](C)N)c(OC)cc1CC1=NCCS1` [Example 10, (R)-2-[4-(4,5-Dihydro-thiazol-2-ylmethyl)-2,5-dimethoxy-phenyl]-1-methyl-ethylamine hydrochloride], in assay [1], the pEC50 is 6.22. Also, the Emax in assay [1] (setting [3]) came to 52%.

Turning to `COc1cc(C[C@@H](C)N)c(OC)cc1CC1CCCO1` (stereo partly drawn) [Example 12, (R)-2-[2,5-Dimethoxy-4-(tetrahydro-furan-2-ylmethyl)-phenyl]-1-methyl-ethylamine hydrochloride], the negative logarithm of the EC50 (pEC50) in assay [1] was 7.09. The maximum response (Emax) in assay [1] (setting [3]) was determined as 73%.

With `COc1cc(C[C@@H](C)N)c(OC)cc1CC1CCCS1` (stereo partly drawn) [Example 13, (R)-2-[2,5-Dimethoxy-4-(tetrahydro-thiophen-2-ylmethyl)-phenyl]-1-methyl-ethylamine hydrochloride], in assay [1], the pEC50 was 6.25. Also, in assay [1] (setting [3]), the Emax was 81%.

As for `COc1cc(CC(C)N)c(OC)cc1CSC` (stereo not shown) [Example 14, 2-(2,5-Dimethoxy-4-methylsulfanylmethyl-phenyl)-1-methyl-ethylamine; hydrochloride], in assay [1], the pEC50 is 7.17. In assay [1] (setting [3]), the maximum response (Emax) worked out at 52%.

On to `COc1cc(C[S+](C)[O-])c(OC)cc1CC(C)N` (stereo not shown) [Example 15, 2-(4-Methanesulfinylmethyl-2,5-dimethoxy-phenyl)-1-methyl-ethylamine trifluoroacetate], for which, in assay [1], the pEC50 is 5.12. In addition, in assay [1] (setting [3]), the Emax came to 37%.

`COc1cc(CC(C)N)c(OC)cc1CC[S+](C)[O-]` (stereo not shown) [Example 16, 2-[4-(2-Methanesulfinyl-ethyl)-2,5-dimethoxy-phenyl]-1-methyl-ethylamine hydrochloride]: the pEC50 in assay [1] was 6.06. In assay [1] (setting [3]), the maximal effect (Emax) is 40%.

Turning to `COc1cc(C[C@@H](C)N)c(OC)cc1Cc1ccccc1` [Example 17, (R)-2-(4-Benzyl-2,5-dimethoxy-phenyl)-1-methyl-ethylamine hydrochloride], the pEC50 in assay [1] was 6.51. In assay [1] (setting [3]), the Emax came to 43%.

As for `COc1ccc(Cc2cc(OC)c(C[C@@H](C)N)cc2OC)cc1` [Example 18, (R)-2-[2,5-Dimethoxy-4-(4-methoxy-benzyl)-phenyl]-1-methyl-ethylamine hydrochloride], in assay [1], the pEC50 is 6.66. The Emax in assay [1] (setting [3]) was determined as 23%.

On to `COc1ccccc1Cc1cc(OC)c(C[C@@H](C)N)cc1OC` [Example 19, (R)-2-[2,5-Dimethoxy-4-(2-methoxy-benzyl)-phenyl]-1-methyl-ethylamine hydrochloride], for which, in assay [1], the pEC50 was 6.18. In assay [1] (setting [3]), the Emax is 22%.

For `COc1cccc(Cc2cc(OC)c(C[C@@H](C)N)cc2OC)c1` [Example 20, (R)-2-[2,5-Dimethoxy-4-(3-methoxy-benzyl)-phenyl]-1-methyl-ethylamine hydrochloride], in assay [1], the pEC50 was 6.59. In assay [1] (setting [3]), the Emax was 53%.

As to `COc1cc(C[C@@H](C)N)c(OC)cc1Cc1ccc(Cl)cc1` [Example 21, (R)-2-[4-(4-Chloro-benzyl)-2,5-dimethoxy-phenyl]-1-methyl-ethylamine hydrochloride], the pEC50 in assay [1] was 6.02. Further, the Emax in assay [1] (setting [3]) was 39%.

For the compound “(R)-2-(4-Furan-2-ylmethyl-2,5-dimethoxy-phenyl)-1-methyl-ethylamine hydrochloride [Example 11]”, the pEC50 in assay [1] (intracellular calcium mobilization, A7r5 cells, FLIPR, read-out: EC50) was 6.92. Moreover, in assay [1] (setting [3]), the “Efficacy (Emax %)” value is 55%. In addition, on 5-HT2 receptors, the pIC50 (in general, −log10 of the IC50, conventionally taken in molar units) is 9.44.
